Results published in patent US20260022142A1, “MACROCYCLIC IMMUNOMODULATORS” (Bristol-Myers Squibb Company, priority 2022, published 2026).
Numbered stars: 1 amine (or outer) side, 2 acyl side, 3 side chain; on linkers, the order of the positions; unused ones are H or OH. Bridge positions count the residues as written; N and C are the ends. Square brackets hold non-standard residues; d marks the D form. Peptide text beside a SMILES is read from it. * marks the point of attachment. Phe(3-CF3) = N[C@@H](Cc1cccc(C(F)(F)F)c1)C(=O)O; Phe(4-COOH) = N[C@@H](Cc1ccc(C(=O)O)cc1)C(=O)O; Bip = N[C@@H](Cc1ccc(-c2ccccc2)cc1)C(=O)O; NH(CH2)14COOH = O=C(O)CCCCCCCCCCCCCCN*; Phe(3-Me) = Cc1cccc(C[C@H](N)C(=O)O)c1; γGlu = O=C(O)[C@H](CCC(=O)[*:2])N[*:1]; PEG6 = NCCOCCOCCOCCOCCOCCOCCC(=O)O; Val(3-OH) = CC(C)(O)[C@H](N)C(=O)O; Cha = N[C@@H](CC1CCCCC1)C(=O)O; aThr = C[C@H](O)[C@H](N)C(=O)O; PEG4 = NCCOCCOCCOCCOCCC(=O)O; Carboxymethyl = O=C(O)C*; Orn = NCCC[C@H](N)C(=O)O; Dab = NCC[C@H](N)C(=O)O

What follows are compounds tested against T1, PD-1/PD-L1 interaction (PE-labeled human PD-L1-Ig binding to Jurkat cell line over-expressing human PD-1) (Homo sapiens, UniProt Q15116) (assay: Jurkat-PD-1 Cell Binding High-Content Screening Assay (CBA)). Conditions: Jurkat cell line over-expressing human PD-1; PE-labeled PD-L1-Ig 20 nM final; read-out: Jurkat hPD1-PDL1 IC50.
T1 construct: expressed in transfected cells; host or cells: Jurkat
Format: cell-based
In short: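 Read-out is high-content imaging of cell-bound phycoerythrin-tagged PD-L1-Ig on fixed, Hoechst-counterstained Jurkat cells that over-express human PD-1. Compound exposure lasts 2 h at 37° C before the labeled ligand (20 nM final) is added for a further hour.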

T1 sequence (Q15116 25-288): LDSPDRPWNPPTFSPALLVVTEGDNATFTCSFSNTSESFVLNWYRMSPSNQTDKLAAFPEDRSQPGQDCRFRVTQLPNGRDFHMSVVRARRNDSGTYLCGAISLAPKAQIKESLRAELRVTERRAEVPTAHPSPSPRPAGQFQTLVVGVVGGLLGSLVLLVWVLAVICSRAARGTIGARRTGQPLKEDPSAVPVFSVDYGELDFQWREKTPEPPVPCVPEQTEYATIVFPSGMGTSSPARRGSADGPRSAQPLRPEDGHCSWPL

Structure (SMILES)	IC50
CC(C)C[C@@H]1NC(=O)CSC[C@@H](C(=O)N[C@@H](CCN)C(=O)NCCOCCOCCOCCOCCC(=O)NCCCCCCCCCCCCCCC(=O)O)NC(=O)[C@H](CCC(=O)O)NC(=O)[C@H](C(C)C)NC(=O)[C@H](CC2CCCCC2)NC(=O)[C@H](CCN)NC(=O)[C@@H](CC(C)C)NC(=O)[C@H](CCCN)NC(=O)[C@H](Cc2ccc(C(=O)O)cc2)NC(=O)[C@H](Cc2ccc(-c3ccccc3)cc2)NC(=O)[C@H](Cc2ccc(C(=O)O)cc2)NC(=O)[C@H](Cc2cccc(C(F)(F)F)c2)NC(=O)[C@H](CC(=O)O)NC(=O)[C@H](Cc2ccc(C(=O)O)cc2)NC1=O [Compound 3910] ({CH2CO}-L[Phe(4-COOH)]D[Phe(3-CF3)][Phe(4-COOH)][Bip][Phe(4-COOH)][Orn][dL][Dab][Cha]VEC[Dab][PEG4]-{NH(CH2)14COOH}; thioether N-14)	597 nM
CC(C)C[C@H]1NC(=O)[C@H](CCCN)NC(=O)[C@H](Cc2ccc(OCC(=O)O)cc2)NC(=O)[C@H](Cc2ccc(-c3ccccc3)cc2)NC(=O)[C@H](Cc2ccc(C(=O)O)cc2)NC(=O)[C@H](Cc2cccc(C(F)(F)F)c2)NC(=O)[C@H](CC(=O)O)NC(=O)[C@H](Cc2ccc(OCC(=O)O)cc2)NC(=O)[C@H]([C@H](C)O)NC(=O)CSC[C@@H](C(=O)N[C@@H](CCN)C(=O)NCCOCCOCCOCCOCCOCCOCCC(=O)NCCCCCCCCCCCCCCC(=O)O)NC(=O)[C@H](CCC(=O)O)NC(=O)[C@H](C(C)C)NC(=O)[C@H](CC2CCCCC2)NC(=O)[C@H](CCN)NC1=O [Compound 3912] ({CH2CO}-[aThr]Y(Carboxymethyl)D[Phe(3-CF3)][Phe(4-COOH)][Bip]Y(Carboxymethyl)[Orn][dL][Dab][Cha]VEC[Dab][PEG6]-{NH(CH2)14COOH}; thioether N-14)	252 nM

Stronger by IC50, values ahead:

IC50	Structure (SMILES)
125 nM	COC[C@@H]1NC(=O)CSC[C@@H](C(=O)N[C@@H](CCN)C(=O)NCCOCCOCCOCCOCCC(=O)N[C@@H](CCC(=O)N[C@@H](CO)C(=O)NCCCCCCCCCCCCCCC(=O)O)C(=O)O)NC(=O)[C@H](CO)NC(=O)[C@H](C(C)(C)O)NC(=O)[C@H](CC2CCCCC2)NC(=O)[C@H](CCN)NC(=O)[C@@H](CC(C)C)NC(=O)[C@H](CCCN)NC(=O)[C@H](Cc2ccc(C(=O)O)cc2)NC(=O)[C@H](Cc2ccc(-c3ccccc3)cc2)NC(=O)[C@H](Cc2ccc(C(=O)O)cc2)NC(=O)[C@H](Cc2cccc(C(F)(F)F)c2)NC(=O)[C@H](CC(=O)O)NC(=O)[C@H](Cc2ccc(C(=O)O)cc2)NC1=O [Compound 3908] ({CH2CO}-S(Me)[Phe(4-COOH)]D[Phe(3-CF3)][Phe(4-COOH)][Bip][Phe(4-COOH)][Orn][dL][Dab][Cha][Val(3-OH)]SC[Dab][PEG4][γGlu]S-{NH(CH2)14COOH}; thioether N-14)
15.7 nM	Cc1cccc(C[C@@H]2NC(=O)[C@H](CC(=O)O)NC(=O)[C@H](Cc3ccc(C(=O)O)cc3)NC(=O)[C@H](CC(C)C)NC(=O)CSC[C@@H](C(=O)N[C@@H](CCN)C(=O)NCCOCCOCCOCCOCCC(=O)NCCCCCCCCCCCCCCC(=O)O)NC(=O)[C@H](CCC(=O)O)NC(=O)[C@H](C(C)C)NC(=O)[C@H](CC3CCCCC3)NC(=O)[C@H](CCN)NC(=O)[C@@H](CC(C)C)NC(=O)[C@H](CCCN)NC(=O)[C@H](Cc3ccc(C(=O)O)cc3)NC(=O)[C@H](Cc3ccc(-c4ccccc4)cc3)NC(=O)[C@H](Cc3ccc(C(=O)O)cc3)NC2=O)c1 [Compound 3909] ({CH2CO}-L[Phe(4-COOH)]D[Phe(3-Me)][Phe(4-COOH)][Bip][Phe(4-COOH)][Orn][dL][Dab][Cha]VEC[Dab][PEG4]-{NH(CH2)14COOH}; thioether N-14)
90.5 nM	Cc1cccc(C[C@@H]2NC(=O)[C@H](CC(=O)O)NC(=O)[C@H](Cc3ccc(OCC(=O)O)cc3)NC(=O)[C@H]([C@H](C)O)NC(=O)CSC[C@@H](C(=O)N[C@@H](CCN)C(=O)NCCOCCOCCOCCOCCOCCOCCC(=O)NCCCCCCCCCCCCCCC(=O)O)NC(=O)[C@H](CCC(=O)O)NC(=O)[C@H](C(C)C)NC(=O)[C@H](CC3CCCCC3)NC(=O)[C@H](CCN)NC(=O)[C@@H](CC(C)C)NC(=O)[C@H](CCCN)NC(=O)[C@H](Cc3ccc(OCC(=O)O)cc3)NC(=O)[C@H](Cc3ccc(-c4ccccc4)cc3)NC(=O)[C@H](Cc3ccc(C(=O)O)cc3)NC2=O)c1 [Compound 3911] ({CH2CO}-[aThr]Y(Carboxymethyl)D[Phe(3-Me)][Phe(4-COOH)][Bip]Y(Carboxymethyl)[Orn][dL][Dab][Cha]VEC[Dab][PEG6]-{NH(CH2)14COOH}; thioether N-14)
